Experimental data: patent publication US20220378923A1, “BET DEGRADER” (KYOWA KIRIN CO., LTD., priority 2019, published 2022)

The molecules below were run on SU-DHL-4 cells (assay: Inhibitory effect on cell viability in SU-DHL-4 cell line (Test Example 1)). Details: SU-DHL-4 cells, 72 hours, Cell Counting Kit-8; concentration showing 90% inhibition of cell viability; read-out: SU-DHL-4 Cell Viability Inhibition Rate IC90.
Assay type: cell-based, human
Method in brief: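 SU-DHL-4 cells were grown at 37° C. under 5% CO2 in RPMI1640 with 10 vol % heat-inactivated FBS plus penicillin/streptomycin, seeded and precultured for 18 to 25 hours, then exposed to test compound at 0.1 vol % DMSO for 72 hours. Viability was read with Cell Counting Kit-8 by absorbance at 450 nm.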

| Compound | IC90 [nM] |
| --- | --- |
| CCC(=O)N1c2ccccc2[C@H](Nc2ccc(NC(=O)C3CN(C(=O)[C@H]4CC[C@H](N[C@@H]5C[C@H](C)N(C(=O)CC)c6ccccc65)CC4)C3)cc2)C[C@@H]1C [Compound 8c, 1-((1R,4R)-4-(((2S,4R)-2-Methyl-1-propionyl-1,2,3,4-tetrahydroquinolin-4-yl)amino)cyclohexane-1-carbonyl)-N-(4-(((2S,4R)-2-methyl-1-propionyl-1,2,3,4-tetrahydroquinolin-4-yl)amino)phenyl)azetidine-3-carboxamide] | 0.26 |
| CCC(=O)N1c2ccccc2[C@H](Nc2ccc(Cn3cc(C(=O)N[C@H]4CC[C@H](N[C@@H]5C[C@H](C)N(C(=O)CC)c6ccccc65)CC4)nn3)cc2)C[C@@H]1C [Compound 8f, 1-(4-(((2S,4R)-2-Methyl-1-propionyl-1,2,3,4-tetrahydroquinolin-4-yl)amino)benzyl)-N-((1R,4R)-4-(((2S,4R)-2-methyl-1-propionyl-1,2,3,4-tetrahydroquinolin-4-yl)amino)cyclohexyl)-1H-1,2,3-triazole-4-carboxamide] | 1.14 |
| CCC(=O)N1c2ccccc2[C@H](Nc2ccc(C(=O)NCC#CC(=O)NC3CCC(N[C@@H]4C[C@H](C)N(C(=O)CC)c5ccccc54)CC3)cc2)C[C@@H]1C (stereo partly drawn) [Compound 8m, 4-(((2S,4R)-2-Methyl-1-propionyl-1,2,3,4-tetrahydroquinolin-4-yl)amino)-N-(4-(((1R,4r)-4-(((2S,4R)-2-methyl-1-propionyl-1,2,3,4-tetrahydroquinolin-4-yl)amino)cyclohexyl)amino)-4-oxobut-2-yn-1-yl)benzamide] | 0.11 |
| CCC(=O)N1c2ccccc2[C@H](Nc2ccc(C(=O)N3C[C@H]4C[C@@H]3CN4C(=O)[C@H]3CC[C@H](N[C@@H]4C[C@H](C)N(C(=O)CC)c5ccccc54)CC3)cc2)C[C@@H]1C [Compound 8p, 1-((2S,4R)-2-Methyl-4-(((1R,4R)-4-((1R,4R)-5-(4-(((2S,4R)-2-methyl-1-propionyl-1,2,3,4-tetrahydroquinolin-4-yl)amino)benzoyl)-2,5-diazabicyclo[2.2.1]heptane-2-carbonyl)cyclohexyl)amino)-3,4-dihydroquinolin-1(2H)-yl)propan-1-one] | 15 |
| CCC(=O)N1c2ccccc2[C@H](Nc2ccc(NC(=O)NC3CN(C(=O)C4CCC(N[C@@H]5C[C@H](C)N(C(=O)CC)c6ccccc65)CC4)C3)cc2)C[C@@H]1C (stereo partly drawn) [Compound 9h, 1-(1-((1R,4r)-4-(((2S,4R)-2-Methyl-1-propionyl-1,2,3,4-tetrahydroquinolin-4-yl)amino)cyclohexane-1-carbonyl)azetidin-3-yl)-3-(4-(((2S,4R)-2-methyl-1-propionyl-1,2,3,4-tetrahydroquinolin-4-yl)amino)phenyl)urea] | 7.16 |
| CCC(=O)N1c2ccccc2[C@H](Nc2ccc(C(=O)NC3CN(C(=O)c4ccc(C5=N[C@@H](CC(=O)OCCN(C)C)c6nnc(C)n6-c6sc(C)c(C)c65)cc4)C3)cc2)C[C@@H]1C [Compound 13b, 2-(Dimethylamino)ethyl 2-((S)-2,3,9-trimethyl-4-(4-(3-(4-(((2S,4R)-2-methyl-1-propionyl-1,2,3,4-tetrahydroquinolin-4-yl)amino)benzamide)azetidine-1-carbonyl)phenyl)-6H-thieno[3,2-f][1,2,4]triazolo[4,3-a][1,4]diazepin-6-yl)acetate] | 3.5 |
| CCC(=O)N1c2ccccc2[C@H](Nc2ccc(C(=O)NCCCNC(=O)c3ccc(C4=N[C@@H](CC(=O)OCCN(C)C)c5nnc(C)n5-c5sc(C)c(C)c54)cc3)cc2)C[C@@H]1C [Compound 13c, 2-(Dimethylamino)ethyl 2-((S)-2,3,9-trimethyl-4-(4-((3-(4-(((2S,4R)-2-methyl-1-propionyl-1,2,3,4-tetrahydroquinolin-4-yl)amino)benzamide)propyl)carbamoyl)phenyl)-6H-thieno[3,2-f][1,2,4]triazolo[4,3-a][1,4]diazepin-6-yl)acetate] | 7.36 |
